{"source": "patent US8729103B2", "about": "“Silent desensitizers of neuronal nAChR and methods of use thereof” (priority 2008, dated 2014)", "key": {"[1]": {"conditions": "in vivo; cited from earlier work"}, "[2]": {"assay": "stability of the isolated HCl salt on exposure to air", "format": "physicochemical", "conditions": "white solid, larger scale", "from_the_text": "A gram-scale synthesis of sazetidine A is outlined in FIG. 1a. The Boc-protected azidityl methyl alcohol 2 and 3-bromo-5-hydroxy pyridine (3) are both commercially available. Treatment with PPh3 and DEAD according to the Mitsunobu protocol formed ether derivative 4 in 70% yield. Palladium-mediated coupling of the bromo-substituted pyridine 4 with 5-hexyn-1-ol under modified Sonogashira conditions furnished Boc-protected sazetidine A in 73% yield. Deprotection of the Boc-group with HCl was expected to give sazetidine A in salt form as published in the literature."}, "α4β2 nAChRs [3]": {"molecular_target": "T1, α4β2 nAChRs (Homo sapiens, UniProt P17787+P43681)", "T1 construct": "expressed in transfected cells; host or cells: SH-EP1 (SH-EP1-pcDNA-hα4β2)", "conditions": "added alone; cited from earlier work"}, "α4β2 nAChRs [4]": {"molecular_target": "T2, α4β2 nAChRs (Rattus norvegicus, UniProt P09483+P12390)", "T2 construct": "expressed in transfected cells; host or cells: HEK293 (KXα4β2)", "assay": "[3H]epibatidine competition binding, α4β2 nAChR", "conditions": "triazole in place of alkyne", "experimental": "The cell lines KXα3β4R2, expressing rat α3β4 nAChRs, and KXα4β2, expressing rat α4β2 nAChRs, were established previously by stably transfecting human embryonic kidney 293 cells with combinations of rat nAChR subunit genes. These cell lines are maintained in minimum essential medium supplemented with 10% fetal bovine serum, 100 units/mL penicillin G, […] streptomycin, and 0.7 mg/mL G418 (Geneticin) at 37° C. with 5% CO2 in a humidified incubator. The cell line SH-EP1-pcDNA-hα4β2, expressing human α4β2 nAChRs, was described previously and are available. […]\nThe Ki values of compounds for binding to α3β4, α4β2 and other nAChR sub-types will be measured by competition experiments with [3H]epibatidine or other labeled ligands. […]\nIn brief, cultured cells at above about 80% confluence will be removed from their flasks (80 cm^2) with a disposable cell scraper and will be placed in 10 mL of 50 mM Tris-HCl buffer, pH 7.4, 4° C. […] Nonspecific binding will be assessed in parallel incubations in the presence of 300 μM nicotine. […] The filter-retained radioactivity will be measured by liquid scintillation counting. […] Data from saturation and competition binding assays will be analyzed using Prism 4 (GraphPad Software, San Diego, Calif.)."}}, "data": [{"smiles": "Clc1ccc(C2CC3CCC2N3)cn1", "note": "(stereo not shown) [Epibatidine]", "values": [{"measurement": "analgesic potency relative to morphine", "setting": "[1]", "value": "~200", "unit": "times"}]}, {"smiles": "OCCCCC#Cc1cncc(OCC2CCN2)c1", "note": "(stereo not shown) [sazetidine A]", "values": [{"measurement": "stability of the HCl salt on exposure to air", "setting": "[2]", "value": "immediately resulted in decomposition"}, {"measurement": "agonist activity at α4β2 nAChRs", "setting": "α4β2 nAChRs [3]", "value": "only low agonist activity"}]}, {"smiles": "OCCCCc1cn(-c2cncc(OCC3CCN3)c2)nn1", "note": "(stereo not shown) [triazetidine O]", "values": [{"measurement": "decrease in Ki relative to sazetidine A", "setting": "α4β2 nAChRs [4]", "value": "approximately 10 fold"}]}]}
